Test results reported in patent US20240197727A1, “SOLID DISPERSIONS COMPRISING AMORPHOUS PIMOBENDAN AND ONE OR MORE STABILIZING POLYMERS” (Boehringer Ingelheim Vetmedica GmbH, priority 2022, published 2024).
Values after ≈ are worked out from the molar mass of the structure shown.

What was measured:
[1] = Thermodynamic (equilibrium) solubility at 37° C., immersed UV probes; format: physicochemical; details: aqueous buffer, thermodynamic from solid
[2] = pH 5; cited from earlier work

solubility thermodynamic ([1]; pH 3.0 (maleic acid buffer)): 19.5 µg/mL (≈ 58.3 µM)
solubility thermodynamic ([1]; pH 6.5 (phosphate buffer)): 0.3 µg/mL (≈ 0.897 µM)
SMILES: COc1ccc(-c2nc3ccc(C4=NNC(=O)CC4C)cc3[nH]2)cc1 (stereo not drawn) [Crystalline pimobendan]
Solubility (amount that dissolves) in water [2]: about 1 mg/liter
